Data reported in patent publication US20130032547A1, “STABILIZATION AND DISINFECTION OF WASTES USING HIGH ENERGY E-BEAM AND CHEMICAL OXIDANTS” (priority 2011, published 2013).
“Also recorded” adds a separate entry of the source.

Columns and labels:
[1] = system: Escherichia coli (ATCC #25922); type: cell-based; on reduction (in words): test concentration or dose not given here
[2] = system: Salmonella Typhimurium; assay: Re-growth of spiked Salmonella in treated biosolids (U.S. EPA method 1682, MPN); type: cell-based; settings: for Salmonella, Plate count: Sep. 11, 2009
[3] = system: Salmonella Typhimurium; type: cell-based; on reduction (in words): test concentration or dose not given here
[4] = system: fecal coliforms (E. coli); assay: Re-growth of fecal coliforms (spiked E. coli) in treated biosolids (U.S. EPA method 1680, MPN); type: cell-based; settings: for fecal coliforms, Plate count: Sep. 11, 2009
[5] = system: Poliovirus Type 1; settings: cited from earlier work
[6] = system: somatic coliphages (phi X 174); type: cell-based, coliphage phi X 174; further: test concentration or dose not given here
[7] = system: estrogenic activity of 17-β-estradiol (E2); human estrogen receptor; assay: Estrogenic activity, YES assay (recombinant yeast); type: cell-based, Saccharomyces cereviciae; on estrogenic activity, E2 spiked (untreated) vs treated samples (in words): test concentration or dose not given here; on reduction of estrogenic activity (in words): test concentration or dose not given here
[8] = Table 23, ClO2 + Irradiated, Oct. 5, 2009
[9] = Table 23, ClO2 + Irradiated, Sep. 18, 2009
[10] = Table 23, ClO2 + Irradiated, Sep. 25, 2009
[11] = Table 24, ClO2 + Irradiated, Oct. 5, 2009
[12] = Table 24, ClO2 + Irradiated, Sep. 18, 2009
[13] = Table 24, ClO2 + Irradiated, Sep. 25, 2009
[14] = Table 25, ClO2 + Irradiated, Oct. 5, 2009
[15] = Table 25, ClO2 + Irradiated, Sep. 18, 2009
[16] = Table 25, ClO2 + Irradiated, Sep. 25, 2009
[17] = Table 26, ClO2 + Irradiated, Oct. 5, 2009
[18] = Table 26, ClO2 + Irradiated, Sep. 18, 2009
[19] = Table 26, ClO2 + Irradiated, Sep. 25, 2009

With `[O][Cl+][O-]` [Chlorine Dioxide, chlorine dioxide] the log reduction [1] was 4 to 5 log, the “log reduction (complete reduction)” value [1] was “approximately 8 log” and the “reduction (in words)” value [1] was “did not exhibit any reduction”. The “re-growth of Salmonella spp. (in words)” value [2] was “no re-growth”, the “Salmonella, Plate count” value ([2]; Table 23 (% total solid 0.0131, aerobic inferred), ClO2) was 2.98E+08 and the “Salmonella MPN/4 g (dry weight)” value [2, 8] was 2.20E+01 MPN/4 g (dry weight). For the same compound, the “Salmonella MPN/4 g (dry weight) based on 2 ml, 1 ml, 0.1 ml” value (from here on “Salmonella MPN/4 g (dry weight) based”) [2, 8] was 2.2E+00 MPN/4 g (dry weight), the “Salmonella MPN/ml (wet weight)” value [2, 8] was 0.0072 MPN/ml (wet weight) and the “Salmonella, Plate count” value ([2]; Table 23, ClO2 + Irradiated) was 4.43E+05. For the same compound, the “Salmonella MPN/4 g (dry weight)” value [2, 9] was 1.91E+02 MPN/4 g (dry weight), the “Salmonella MPN/4 g (dry weight) based” value [2, 9] was 1.9E+01 MPN/4 g (dry weight) and the “Salmonella MPN/ml (wet weight)” value [2, 9] was 0.0626 MPN/ml (wet weight). The “Salmonella MPN/4 g (dry weight)” value [2, 10] was 7.15E+01 MPN/4 g (dry weight), the “Salmonella MPN/4 g (dry weight) based” value [2, 10] was 7.1E+00 MPN/4 g (dry weight) and the “Salmonella MPN/ml (wet weight)” value [2, 10] was 0.0234 MPN/ml (wet weight). For the same compound, the “Salmonella MPN/4 g (dry weight)” value ([2]; Table 23, ClO2, Oct. 5, 2009) was 7.79E+01 MPN/4 g (dry weight), the “Salmonella MPN/4 g (dry weight) based” value ([2]; Table 23, ClO2, Oct. 5, 2009) was 7.8E+00 MPN/4 g (dry weight) and the “Salmonella MPN/ml (wet weight)” value ([2]; Table 23, ClO2, Oct. 5, 2009) was 0.0255 MPN/ml (wet weight). The “Salmonella MPN/4 g (dry weight)” value ([2]; Table 23, ClO2, Sep. 18, 2009) was 4.91E+03 MPN/4 g (dry weight), the “Salmonella MPN/4 g (dry weight) based” value ([2]; Table 23, ClO2, Sep. 18, 2009) was 4.9E+02 MPN/4 g (dry weight) and the “Salmonella MPN/ml (wet weight)” value ([2]; Table 23, ClO2, Sep. 18, 2009) was 1.6090 MPN/ml (wet weight). The “Salmonella MPN/4 g (dry weight)” value ([2]; Table 23, ClO2, Sep. 25, 2009) was 3.51E+02 MPN/4 g (dry weight), the “Salmonella MPN/4 g (dry weight) based” value ([2]; Table 23, ClO2, Sep. 25, 2009) was 3.5E+01 MPN/4 g (dry weight) and the “Salmonella MPN/ml (wet weight)” value ([2]; Table 23, ClO2, Sep. 25, 2009) was 0.1151 MPN/ml (wet weight). For the same compound, the “Salmonella, Plate count” value ([2]; Table 24 (% total solid 0.0312, anaerobic inferred), ClO2) was 3.03E+06, the “Salmonella MPN/4 g (dry weight)” value [2, 11] was 4.41E+01 MPN/4 g (dry weight) and the “Salmonella MPN/4 g (dry weight) based” value [2, 11] was 4.4E+00 MPN/4 g (dry weight). The “Salmonella MPN/ml (wet weight)” value [2, 11] was 0.0344 MPN/ml (wet weight), the “Salmonella, Plate count” value ([2]; Table 24, ClO2 + Irradiated) was 3.85E+03 and the “Salmonella MPN/4 g (dry weight)” value [2, 12] was 6.95E+02 MPN/4 g (dry weight). The “Salmonella MPN/4 g (dry weight) based” value [2, 12] was 7.0E+01 MPN/4 g (dry weight), the “Salmonella MPN/ml (wet weight)” value [2, 12] was 0.5422 MPN/ml (wet weight) and the “Salmonella MPN/4 g (dry weight)” value [2, 13] was 8.03E+01 MPN/4 g (dry weight). For the same compound, the “Salmonella MPN/4 g (dry weight) based” value [2, 13] was 8.0E+00 MPN/4 g (dry weight), the “Salmonella MPN/ml (wet weight)” value [2, 13] was 0.0626 MPN/ml (wet weight) and the “Salmonella MPN/4 g (dry weight)” value ([2]; Table 24, ClO2, Oct. 5, 2009) was 8.03E+01 MPN/4 g (dry weight). For the same compound, the “Salmonella MPN/4 g (dry weight) based” value ([2]; Table 24, ClO2, Oct. 5, 2009) was 8.0E+00 MPN/4 g (dry weight), the “Salmonella MPN/ml (wet weight)” value ([2]; Table 24, ClO2, Oct. 5, 2009) was 0.0626 MPN/ml (wet weight) and the “Salmonella MPN/4 g (dry weight)” value ([2]; Table 24, ClO2, Sep. 18, 2009) was 2.06E+03 MPN/4 g (dry weight). For the same compound, the “Salmonella MPN/4 g (dry weight) based” value ([2]; Table 24, ClO2, Sep. 18, 2009) was 2.1E+02 MPN/4 g (dry weight), the “Salmonella MPN/ml (wet weight)” value ([2]; Table 24, ClO2, Sep. 18, 2009) was 1.6090 MPN/ml (wet weight) and the “Salmonella MPN/4 g (dry weight)” value ([2]; Table 24, ClO2, Sep. 25, 2009) was 4.46E+02 MPN/4 g (dry weight). For the same compound, the “Salmonella MPN/4 g (dry weight) based” value ([2]; Table 24, ClO2, Sep. 25, 2009) was 4.5E+01 MPN/4 g (dry weight), the “Salmonella MPN/ml (wet weight)” value ([2]; Table 24, ClO2, Sep. 25, 2009) was 0.3475 MPN/ml (wet weight) and the log reduction [3] was 3 log. For the same compound, the “reduction (in words)” value [3] was “did not show any significant reduction”, the “re-growth of fecal coliforms (in words)” value [4] was “no re-growth” and the “fecal coliforms, Plate count” value ([4]; Table 25 (aerobic sludge inferred), ClO2) was 4.27E+07. For the same compound, the “fecal coliforms MPN/4 g dry wt” value [4, 14] was less than 0.1803 MPN/4 g dry wt, the “fecal coliforms MPN/g dry wt” value [4, 14] was less than 0.1803 MPN/g dry wt and the “fecal coliforms, Plate count” value ([4]; Table 25, ClO2 + Irradiated) was 0.00E+00. For the same compound, the “fecal coliforms MPN/4 g dry wt” value [4, 15] was less than 0.1803 MPN/4 g dry wt, the “fecal coliforms MPN/g dry wt” value [4, 15] was less than 0.1803 MPN/g dry wt and the “fecal coliforms MPN/4 g dry wt” value [4, 16] was less than 0.1803 MPN/4 g dry wt. For the same compound, the “fecal coliforms MPN/g dry wt” value [4, 16] was less than 0.1803 MPN/g dry wt, the “fecal coliforms MPN/4 g dry wt” value ([4]; Table 25, ClO2, Oct. 5, 2009) was 1.37E+03 MPN/4 g dry wt and the “fecal coliforms MPN/g dry wt” value ([4]; Table 25, ClO2, Oct. 5, 2009) was 3.44E+02 MPN/g dry wt. For the same compound, the “fecal coliforms MPN/4 g dry wt” value ([4]; Table 25, ClO2, Sep. 18, 2009) was 8.49E+05 MPN/4 g dry wt, the “fecal coliforms MPN/g dry wt” value ([4]; Table 25, ClO2, Sep. 18, 2009) was 2.12E+05 MPN/g dry wt and the “fecal coliforms MPN/4 g dry wt” value ([4]; Table 25, ClO2, Sep. 25, 2009) was 6.47E+03 MPN/4 g dry wt. The “fecal coliforms MPN/g dry wt” value ([4]; Table 25, ClO2, Sep. 25, 2009) was 1.62E+03 MPN/g dry wt, the “fecal coliforms, Plate count” value ([4]; Table 26 (anaerobic sludge inferred), ClO2) was 7.26E+06 and the “fecal coliforms MPN/4 g dry wt” value [4, 17] was less than 0.1803 MPN/4 g dry wt. For the same compound, the “fecal coliforms MPN/g dry wt” value [4, 17] was less than 0.1803 MPN/g dry wt, the “fecal coliforms, Plate count” value ([4]; Table 26, ClO2 + Irradiated) was 2.14E+03 and the “fecal coliforms MPN/4 g dry wt” value [4, 18] was 1.01E+03 MPN/4 g dry wt. For the same compound, the “fecal coliforms MPN/g dry wt” value [4, 18] was 2.53E+02 MPN/g dry wt, the “fecal coliforms MPN/4 g dry wt” value [4, 19] was less than 0.1803 MPN/4 g dry wt and the “fecal coliforms MPN/g dry wt” value [4, 19] was less than 0.1803 MPN/g dry wt. For the same compound, the “fecal coliforms MPN/4 g dry wt” value ([4]; Table 26, ClO2, Oct. 5, 2009) was less than 0.1803 MPN/4 g dry wt, the “fecal coliforms MPN/g dry wt” value ([4]; Table 26, ClO2, Oct. 5, 2009) was less than 0.1803 MPN/g dry wt and the “fecal coliforms MPN/4 g dry wt” value ([4]; Table 26, ClO2, Sep. 18, 2009) was 1.02E+05 MPN/4 g dry wt. For the same compound, the “fecal coliforms MPN/g dry wt” value ([4]; Table 26, ClO2, Sep. 18, 2009) was 2.54E+04 MPN/g dry wt, the “fecal coliforms MPN/4 g dry wt” value ([4]; Table 26, ClO2, Sep. 25, 2009) was 1.67E+03 MPN/4 g dry wt and the “fecal coliforms MPN/g dry wt” value ([4]; Table 26, ClO2, Sep. 25, 2009) was 4.17E+02 MPN/g dry wt. For the same compound, the “time to inactivate clumped poliovirus I aggregates compared to single state viruses” value [5] was 2.7 times longer, the “inactivation (in words)” value [6] was “effectively eliminated; also recorded: significant reductions” and the “estrogenic activity, E2 spiked (untreated) vs treated samples (in words)” value [7] was “no significant difference”. The “reduction of estrogenic activity (in words)” value [7] was “does not reduce”.
For `C[C@]12CC[C@@H]3c4ccc(O)cc4CC[C@H]3[C@@H]1CC[C@@H]2O` [E2, 17-β-estradiol, reference compound], the “upper limit of the dynamic range of the YES assay (saturation)” value ([7]; E2 standards in DMSO) was 60 nM.
